Among the test systems are MCF7; RXF 393; SNB-19; SK-MEL-5; SN12C; SK-OV-3; CAKI-1; MOLT-4; K562; HCT-116; HOP-62; RPMI-8226; HT-29; UACC-257; DMS-114; OVCAR-4.
Common to all, as to assay: growth of human tumour cells (NCI), 48 h

Experimental findings from ChEMBL document CHEMBL1201862, “PubChem BioAssay data set” (2004) are described below.

Structures are written as SMILES.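 Cells were grown in 96-well plates and exposed to each compound for 48 hours at five concentrations; endpoints were interpolated linearly between bracketing concentrations, or set to the highest concentration if not reached. GI50 marks 50% less growth.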 Active and inactive are the calls of the source. No stated cut-off is given here; in the data, active = GI50 up to about 1.1 µM and inactive = higher.

Take `COC1=CC(=O)c2c(c(O)c3oc4cc(OC)cc(C)c4c(=O)c3c2O)C1=O` [BIKAVERIN]: the GI50 in the test with MCF7 is 1690 nM (inactive); in the test on RXF 393, 912 nM (active); in the test with SNB-19 it was 2280 nM (inactive); with SK-MEL-5, 1000 nM (active); in the test with SN12C, 1560 nM (inactive); with SK-OV-3 it was 1560 nM (inactive). For the same molecule, the GI50 in the test with CAKI-1 is 195 nM (active); with MOLT-4, 671 nM (active); in the test on K562, 719 nM (active); in the test with HCT-116, 1020 nM (active); with HOP-62, 1100 nM (active); in the test with RPMI-8226 it was 1010 nM (active). The GI50 with HT-29 is 19400 nM (inactive); with UACC-257, 1200 nM (inactive); in the test on DMS-114, 462 nM (active); in the test on OVCAR-4, 1270 nM (inactive).
